In US6599521B1 (priority 2000, dated 2003):

How the values were obtained:
[1] = test system: S. aureus MN8; assay type: cell-based, Staphylococcus aureus; details: 24 hours at 35° C.
[2] = test system: TSST-1; assay type: cell-based, Staphylococcus aureus; details: 24 hours at 35° C.

Molecule	Final [S. aureus] (× 10^9 CFU/ml) [1]	TSST-1 [2] [ng/mL]
CCCCCCCCCCCCCCCCCCOCCOCCO [Steareth-2]	5.76 × 10^9 CFU/ml	680.7
PPG-5 Laureth-5	3.82 × 10^9 CFU/ml	609.2
CCCCCCCCCCCCOCCOCCOCCOCCO [Laureth-4]	4.57 × 10^9 CFU/ml	531.8
